Values quoted from earlier work as cited in paper PMC5742115, “Pharmacophore Modeling and in Silico/in Vitro Screening for Human Cytochrome P450 11B1 and Cytochrome P450 11B2 Inhibitors” (Frontiers in Chemistry, 2017).
Where two headings read alike, the source gives them in different places.

What was measured:
[1] = test system: CYP11B1; conditions: reported activity, supplementary Table 1, read-out: CYP11B1 IC50, cited from earlier work
[2] = test system: CYP11B2; conditions: reported activity, supplementary Table 1, read-out: CYP11B2 IC50, cited from earlier work

Compound | IC50 ([1]; ref Roumen et al., 2010) [nM] | IC50 ([2]; ref Roumen et al., 2010) [nM] | other results
COc1ccc2c(c1)CC(C)C(c1cccnc1)=C2 (stereo not drawn) [CHEMBL502266] |  |  | IC50 ([1]; ref Heim et al., 2008): 248 nM; IC50 ([2]; ref Heim et al., 2008): 3.3 nM
COc1cncc(-c2cc3ccc(OC)cc3cc2C)c1 [CHEMBL502818] |  |  | IC50 ([1]; ref Heim et al., 2008): 875 nM; IC50 ([2]; ref Heim et al., 2008): 3.8 nM
COc1ccc2cc(-c3cncc(C(C)=O)c3)ccc2c1 [CHEMBL502824] |  |  | IC50 ([1]; ref Heim et al., 2008): 255 nM; IC50 ([2]; ref Heim et al., 2008): 2.1 nM
S=C1CCc2cc(-c3cccnc3)cc(Cl)c2N1 [CHEMBL508155] |  |  | IC50 ([1]; ref Lucas et al., 2008b): 769 nM; IC50 ([2]; ref Lucas et al., 2008b): 4.2 nM
O=C1CSc2cc(-c3cccnc3)ccc2N1 [CHEMBL509971] |  |  | IC50 ([1]; ref Lucas et al., 2008b): 525 nM; IC50 ([2]; ref Lucas et al., 2008b): 12 nM
S=C1CCc2cc(-c3cccnc3)ccc2N1 [CHEMBL511329] |  |  | IC50 ([1]; ref Lucas et al., 2008b): 580 nM; IC50 ([2]; ref Lucas et al., 2008b): 3.1 nM
COc1ccc2cc(-c3cncc4ccccc34)c(C)cc2c1 [CHEMBL525785] |  |  | IC50 ([1]; ref Heim et al., 2008): 843 nM; IC50 ([2]; ref Heim et al., 2008): 3.1 nM
COC(=O)Cc1cncc(-c2ccc3cc(OC)ccc3c2)c1 [CHEMBL526339] |  |  | IC50 ([1]; ref Heim et al., 2008): 199 nM; IC50 ([2]; ref Heim et al., 2008): 6.9 nM
COC(=O)CCc1cncn1Cc1ccc(C#N)cc1 [CHEMBL591229] | 31 | 3.5 | 
OCCCc1cncn1Cc1ccc(F)cc1 [CHEMBL591465] | 116 | 16 | 
COc1ccc(Cn2cncc2-c2ccccc2)cc1 [CHEMBL591697] | 11 | 14 | 
COC(=O)c1cncn1Cc1ccc(C#N)cc1 [CHEMBL591698] | 48 | 7 | 
COC(=O)CCc1cncn1Cc1ccc(Br)cc1 [CHEMBL592614] | 57 | 4 | 
Clc1ccc(Cn2cncc2-c2ccccc2)cc1 [CHEMBL597101] | 25 | 5.8 | 
Brc1ccc(Cn2cncc2-c2ccccc2)cc1 [CHEMBL597173] | 7 | 5.1 | 
N#Cc1ccc(Cn2cncc2-c2ccccc2)cc1 [CHEMBL597578] | 28 | 1.7 | 
N#Cc1ccc(Cn2cncc2CCCO)cc1 [CHEMBL598399] | 48 | 13 | 
OCCCc1cncn1Cc1ccc(Cl)cc1 [CHEMBL598606] | 44 | 55 | 
N#Cc1ccc(Cn2cncc2-c2cccc(F)c2)cc1 [CHEMBL598789] | 32 | 5.5 | 
N#Cc1ccc(Cn2cncc2-c2ccc(F)cc2)cc1 [CHEMBL598790] | 27 | 25 | 

Compound | IC50 ([1]; ref Roumen et al., 2010) [nM] | IC50 ([2]; ref Roumen et al., 2010) [nM] | other results
OCCCc1cncn1Cc1ccc(Br)cc1 [CHEMBL598810] | 18 | 6.2 | 
COC(=O)OCc1cncn1Cc1ccc(C#N)cc1 [CHEMBL599222] | 213 | 44 | 
N#Cc1ccc(Cn2cncc2Br)cc1 [CHEMBL599223] | 73 | 23 | 
N#Cc1ccc(Cn2cncc2CO)cc1 [CHEMBL599601] | 285 | 29 | 
N#Cc1ccc(Cn2cncc2-c2ccccc2F)cc1 [CHEMBL599603] | 20 | 2.3 | 
COC(=O)CCc1cncn1Cc1ccc(F)cc1 [CHEMBL599622] | 104 | 50 | 
Cc1cccc(-c2cncn2Cc2ccc(C#N)cc2)c1 [CHEMBL607862] | 6.2 | 5.2 | 
Fc1ccc(Cn2cncc2-c2ccccc2)cc1 [CHEMBL610501] | 16 | 11 | 
Cc1ccccc1-c1cncn1Cc1ccc(C#N)cc1 [CHEMBL610513] | 5.7 | 3.7 | 
N#Cc1ccc(Cn2cncc2C=O)cc1 [CHEMBL611680] | 478 | 62 | 
O=c1c2ccccc2oc2cccc(Cn3ccnc3)c12 [CHEMBL1083652] |  |  | IC50 ([1]; ref Gobbi et al., 2013): 99.1 nM; IC50 ([2]; ref Gobbi et al., 2013): 114 nM
c1ccc(-c2ccc(Cn3ccnc3)cc2)cc1 [CHEMBL1235146] |  |  | IC50 ([1]; ref Hille et al., 2011b): 32 nM; IC50 ([2]; ref Hille et al., 2011b): 637 nM
Cc1cc(C)c(Cn2ccnc2)c(C)c1 [CHEMBL1649605] |  |  | IC50 ([1]; ref Hille et al., 2011b): 24 nM; IC50 ([2]; ref Hille et al., 2011b): 30 nM
Cc1ccccc1Cn1ccnc1 [CHEMBL1651492] |  |  | IC50 ([1]; ref Hille et al., 2011b): 61 nM; IC50 ([2]; ref Hille et al., 2011b): 62 nM
Cc1cccc(Cn2ccnc2)c1 [CHEMBL1651493] |  |  | IC50 ([1]; ref Hille et al., 2011b): 48 nM; IC50 ([2]; ref Hille et al., 2011b): 110 nM
Cc1cc(C)cc(Cn2ccnc2)c1 [CHEMBL1651494] |  |  | IC50 ([1]; ref Hille et al., 2011b): 32 nM; IC50 ([2]; ref Hille et al., 2011b): 77 nM
Cc1c(C)c(C)c(Cn2ccnc2)c(C)c1C [CHEMBL1651495] |  |  | IC50 ([1]; ref Hille et al., 2011b): 5 nM; IC50 ([2]; ref Hille et al., 2011b): 23 nM
c1ccc(-c2ccccc2Cn2ccnc2)cc1 [CHEMBL1651496] |  |  | IC50 ([1]; ref Hille et al., 2011b): 15 nM; IC50 ([2]; ref Hille et al., 2011b): 39 nM
c1ccc(-c2cccc(Cn3ccnc3)c2)cc1 [CHEMBL1651497] |  |  | IC50 ([1]; ref Hille et al., 2011b): 46 nM; IC50 ([2]; ref Hille et al., 2011b): 265 nM
